Laboratory results as given in patent publication US9796716B2, “Selective inhibitors of Tec and Src protein kinase families” (Pharmascience, Inc., priority 2012, dated 2017).

What was measured:
[1] = tested on: Splenocytes (B cell proliferation stimulated with anti-IgM F(ab′)2); assay: Splenic Cell Proliferation Assay; type: cell-based; conditions: Mus musculus, Splenocyte, 72 h, CD1 mouse splenocytes, 2.5 ug/ml anti-IgM F(ab′)2 for 72 h, Cell Titer-Glo; read-out: EC50 (nM), Inhibition of splenic cell proliferation
Experimental: Splenic Cell Proliferation Assay
Splenocytes were obtained from 6 week old male CD1 mice (Charles River Laboratories Inc.). Mouse spleens were manually disrupted in PBS and filtered using a 70 um cell strainer followed by ammonium chloride red blood cell lysis. Cells were washed, resuspended in Splenocyte Medium (HyClone RPMI supplemented with 10% heat-inactivated FBS, 0.5× non-essential amino acids, 10 mM HEPES, 50 uM beta mercaptoethanol) and incubated at 37° C., 5% CO2 for 2 h to remove adherent cells. Suspension cells were seeded in 96 well plates at 50,000 cells per well and incubated at 37° C., 5% CO2 for 1 h. Splenocytes were pre-treated in triplicate with 10,000 nM curves of Formula 1 compounds for 1 h, followed by stimulation of B cell proliferation with 2.5 ug/ml anti-IgM F(ab′)2 (Jackson ImmunoResearch) for 72 h. Cell proliferation was measured by Cell Titer-Glo Luminescent Assay (Promega). EC50 values (50% proliferation in the presence of compound as compared to vehicle treated controls) were calculated from dose response compound curves using GraphPad Prism Software.

[2] = target: recombinant human full-length Bruton Agammaglobulinemia Tyrosine Kinase (Btk) (Homo sapiens (Human), UniProt Q06187); assay: Btk Kinase Inhibition Assay (fluorescence polarization); type: biochemical; conditions: 10 μM ATP, 250 μM substrate, 60 minutes; Ki calculated from IC50 using the Cheng-Prusoff equation
Experimental: Kinase Binding Btk Kinase Inhibition Assay
Fluorescence polarization-based kinase assays were performed in 384 well-plate format using histidine tagged recombinant human full-length Bruton Agammaglobulinemia Tyrosine Kinase (Btk) and a modified protocol of the KinEASE™ FP Fluorescein Green Assay supplied from Millipore. Kinase reaction were performed at room temperature for 60 minutes in presence of 250 μM substrate, 10 μM ATP and variable test article concentrations. The reaction was stopped with EDTA/kinase detection reagents and the polarization measured on a Tecan 500 instrument. From the dose-response curve obtained, the IC50 was calculated using Graph Pad Prisms® using a non linear fit curve. The Km for ATP on each enzyme was experimentally determined and the Ki values calculated using the Cheng-Prusoff equation (see: Cheng Y, Prusoff W H. (1973) Relationship between the inhibition constant (K1) and the concentration of inhibitor which causes 50 percent inhibition (I50) of an enzymatic reaction”. Biochem Pharmacol 22 (23): 3099-108).

recombinant human full-length Bruton Agammaglobulinemia Tyrosine Kinase (Btk), sequence (Q06187 whole entry): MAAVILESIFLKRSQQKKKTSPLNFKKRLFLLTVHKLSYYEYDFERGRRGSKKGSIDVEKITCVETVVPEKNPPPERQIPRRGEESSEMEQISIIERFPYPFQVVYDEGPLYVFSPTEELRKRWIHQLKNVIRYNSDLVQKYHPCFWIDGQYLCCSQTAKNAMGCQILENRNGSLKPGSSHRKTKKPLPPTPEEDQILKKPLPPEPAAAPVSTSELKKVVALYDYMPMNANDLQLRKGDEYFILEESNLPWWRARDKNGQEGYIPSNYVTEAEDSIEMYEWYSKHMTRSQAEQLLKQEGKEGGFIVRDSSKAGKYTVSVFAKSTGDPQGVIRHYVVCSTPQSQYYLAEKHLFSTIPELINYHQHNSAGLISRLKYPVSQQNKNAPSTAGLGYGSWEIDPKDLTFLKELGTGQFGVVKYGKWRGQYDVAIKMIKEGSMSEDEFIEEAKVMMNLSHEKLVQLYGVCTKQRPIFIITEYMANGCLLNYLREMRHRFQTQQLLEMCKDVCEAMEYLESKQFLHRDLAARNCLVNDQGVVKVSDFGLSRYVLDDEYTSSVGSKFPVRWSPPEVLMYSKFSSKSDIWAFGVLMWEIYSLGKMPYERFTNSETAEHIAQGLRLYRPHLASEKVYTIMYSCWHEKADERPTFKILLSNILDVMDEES

SMILES | Ki [2] | EC50 [1]
Cn1cncc1COc1cc(F)cc(Oc2ccc(-c3nn(C4CCOCC4)c4ncnc(N)c34)cc2F)c1 [Compound 72] | < 100 nM | 100 to 1000 nM
Cn1cncc1COc1cc(F)cc(Oc2ccc(-c3nn(C4CCOCC4)c4ncnc(N)c34)c(F)c2)c1 [Compound 73] | < 100 nM | < 100 nM
CC(C)Cn1cncc1COc1cc(F)cc(Oc2ccc(-c3nn(C4CCOCC4)c4ncnc(N)c34)cc2)c1 [Compound 74] | < 100 nM | 100 to 1000 nM
[2H]C([2H])(Oc1cc(F)cc(Oc2ccc(-c3nn(C4CCOCC4)c4ncnc(N)c34)cc2)c1)c1cncn1C [Compound 75] | < 100 nM | < 100 nM
Nc1ncnc2c1c(-c1ccc(Oc3cc(F)cc(OCc4cncn4Cc4ccccc4)c3)cc1)nn2C1CCOCC1 [Compound 76] | < 100 nM | 100 to 1000 nM
Nc1ncnc2c1c(-c1ccc(Oc3cc(F)cc(OCc4cncn4C4CCCC4)c3)cc1)nn2C1CCOCC1 [Compound 77] | < 100 nM | < 100 nM
Nc1ncnc2c1c(-c1ccc(Oc3cc(F)cc(CCc4cccnc4)c3)cc1)nn2C1CCOCC1 [Compound 80] | < 100 nM | 100 to 1000 nM
Cc1ncc(COc2cc(F)cc(Oc3ccc(-c4nn(CCO)c5ncnc(N)c45)cc3)c2)s1 [Compound 81] | < 100 nM | < 100 nM
COCCn1cncc1COc1cc(F)cc(Oc2ccc(-c3nn(C4CCOCC4)c4ncnc(N)c34)cc2)c1 [Compound 83] | < 100 nM | 100 to 1000 nM
Cc1ccc(COc2cc(F)cc(Oc3ccc(-c4nn(C5CCCC5)c5ncnc(N)c45)cc3)c2)cn1 [Compound 84] | < 100 nM | < 100 nM
Nc1ncnc2c1c(-c1ccc(Oc3cc(F)cc(CCc4ccccn4)c3)cc1)nn2C1CCOCC1 [Compound 86] | < 100 nM | 100 to 1000 nM
CCn1cncc1COc1cc(F)cc(Oc2ccc(-c3nn(C4CCOCC4)c4ncnc(N)c34)cc2)c1 [Compound 87] | < 100 nM | < 100 nM
Cc1ccc(COc2cc(F)cc(Oc3ccc(-c4nn(CCO)c5ncnc(N)c45)cc3)c2)cn1 [Compound 88] | < 100 nM | < 100 nM
Cc1ccc(COc2cc(F)cc(Oc3ccc(-c4nn(C5CCOCC5)c5ncnc(N)c45)cc3)c2)c[n+]1[O-] [Compound 91] | < 100 nM | < 100 nM
Cn1cncc1COc1cc(F)cc(Oc2ccc(-c3nn(C4CCCC4)c4ncnc(N)c34)c(F)c2)c1 [Compound 92] | < 100 nM | < 100 nM
Nc1ncnc2c1c(-c1ccc(Oc3cc(F)cc(OCc4cnc[nH]4)c3)cc1)nn2C1CCOCC1 [Compound 93] | < 100 nM | 100 to 1000 nM
Cc1ccc(COc2cc(F)cc(Oc3ccc(-c4nn(C5CCOCC5)c5ncnc(N)c45)c(F)c3)c2)cn1 [Compound 95] | < 100 nM | < 100 nM
Cc1ccc(COc2cc(F)cc(Oc3ccc(-c4nn(CCCO)c5ncnc(N)c45)cc3)c2)cn1 [Compound 96] | < 100 nM | < 100 nM

SMILES | Ki [2] | EC50 [1]
Nc1ncnc2c1c(-c1ccc(Oc3cc(F)cc(OCc4cncn4CCOCc4ccccc4)c3)cc1)nn2C1CCOCC1 [Compound 97] | < 100 nM | 100 to 1000 nM
CC(C)n1nc(-c2ccc(Oc3cc(F)cc(OCc4cncn4C)c3)cc2F)c2c(N)ncnc21 [Compound 98] | < 100 nM | < 100 nM
Nc1ncnc2c1c(-c1ccc(Oc3cc(F)cc(OCc4cncn4CCO)c3)cc1)nn2C1CCOCC1 [Compound 99] | < 100 nM | 100 to 1000 nM
Nc1ncnc2c1c(-c1ccc(Oc3cc(F)cc(OCc4ccc(CO)nc4)c3)cc1)nn2C1CCOCC1 [Compound 101] | < 100 nM | < 100 nM
Cc1ncc(COc2cc(F)cc(Oc3ccc(-c4nn(CCCO)c5ncnc(N)c45)cc3)c2)s1 [Compound 104] | < 100 nM | < 100 nM
Cn1cncc1COc1cc(F)cc(Oc2ccc(-c3nn(CCO)c4ncnc(N)c34)c(F)c2)c1 [Compound 105] | < 100 nM | 100 to 1000 nM
Cc1ncc(COc2cc(F)cc(Oc3ccc(-c4nn(C(CO)CCl)c5ncnc(N)c45)cc3)c2)s1 (centres unmarked) [Compound 109] | < 100 nM | < 100 nM
Cc1ncc(COc2cc(F)cc(Oc3ccc(-c4nn(CCO)c5ncnc(N)c45)cc3)c2)cn1 [Compound 110] | < 100 nM | 100 to 1000 nM
Cc1ccc(COc2cc(F)cc(Oc3ccc(-c4nn(CC(C)(C)O)c5ncnc(N)c45)cc3)c2)cn1 [Compound 111] | < 100 nM | 100 to 1000 nM
Cn1cncc1COc1cc(F)cc(Oc2ccc(-c3nn(CC(C)(C)O)c4ncnc(N)c34)cc2)c1 [Compound 112] | < 100 nM | 100 to 1000 nM
Cc1ncc(COc2cc(F)cc(Oc3ccc(-c4nn(C5COC5)c5ncnc(N)c45)cc3)c2)s1 [Compound 113] | < 100 nM | < 100 nM
Cc1ncc(COc2cc(F)cc(Oc3ccc(-c4nn(CCCO)c5ncnc(N)c45)cc3)c2)cn1 [Compound 114] | < 100 nM | 100 to 1000 nM
Cc1ncc(COc2cc(F)cc(Oc3ccc(-c4nn(CCO)c5ncnc(N)c45)cc3)c2)n1C [Compound 115] | < 100 nM | 100 to 1000 nM
Cn1cncc1COc1cc(F)cc(Oc2ccc(-c3nn(CCCO)c4ncnc(N)c34)cc2)c1 [Compound 116] | < 100 nM | < 100 nM
Cc1ncc(COc2cc(F)cc(Oc3ccc(-c4nn(C5CCOCC5)c5ncnc(N)c45)cc3)c2)[nH]1 [Compound 118] | < 100 nM | 100 to 1000 nM
Cc1ncc(COc2cc(F)cc(Oc3ccc(-c4nn(CC5(C)COC5)c5ncnc(N)c45)cc3)c2)cn1 [Compound 119] | < 100 nM | 100 to 1000 nM
Cc1ncc(COc2cc(F)cc(Oc3ccc(-c4nn(C5CCCC5)c5ncnc(N)c45)cc3)c2)n1C [Compound 120] | < 100 nM | < 100 nM

Now from value to molecule, other results behind:

Ki [2] | SMILES | EC50 [1]
< 100 nM | Cn1cncc1COc1cccc(Oc2ccc(-c3nn(C4CCOCC4)c4ncnc(N)c34)cc2)c1 [Compound 48] | < 100 nM
< 100 nM | CC(C)(C)OC(=O)N1CCCC(n2nc(-c3ccc(Oc4cccc(OCc5cncs5)c4)cc3)c3c(N)ncnc32)C1 (centres unmarked) [Compound 49] | < 100 nM
< 100 nM | Nc1ncnc2c1c(-c1ccc(Oc3cccc(OCc4cncs4)c3)cc1)nn2C1CCCNC1 (centres unmarked) [Compound 51] | < 100 nM
< 100 nM | Cc1ncc(COc2cc(F)cc(Oc3ccc(-c4nn(CCN5CCOCC5)c5ncnc(N)c45)cc3)c2)s1 [Compound 52] | < 100 nM
< 100 nM | Nc1ncnc2c1c(-c1ccc(Oc3cccc(OCc4cncs4)c3)cc1)nn2CCCN1CCOCC1 [Compound 53] | < 100 nM
< 100 nM | Cc1ncc(COc2cc(F)cc(Oc3ccc(-c4nn(CCCN5CCOCC5)c5ncnc(N)c45)cc3)c2)s1 [Compound 55] | < 100 nM
< 100 nM | Cc1ncc(COc2cc(F)cc(Oc3ccc(-c4nn(CCN5CCCC5)c5ncnc(N)c45)cc3)c2)s1 [Compound 57] | 100 to 1000 nM
< 100 nM | Cc1ncc(COc2cc(F)cc(Oc3ccc(-c4nn(C5CCOCC5)c5ncnc(N)c45)c(F)c3)c2)s1 [Compound 60] | < 100 nM
< 100 nM | Cc1ncc(COc2cc(F)cc(Oc3ccc(-c4nn(C)c5ncnc(N)c45)cc3)c2)s1 [Compound 61] | 100 to 1000 nM
< 100 nM | Nc1ncnc2c1c(-c1ccc(Oc3cc(F)cc(OCc4ccccc4)c3)cc1)nn2C1CCOCC1 [Compound 63] | < 100 nM
< 100 nM | [2H]C([2H])(Oc1cc(F)cc(Oc2ccc(-c3nn(C4CCOCC4)c4ncnc(N)c34)cc2)c1)c1cnc(C)s1 [Compound 64] | < 100 nM
< 100 nM | Cc1ccc(COc2cc(F)cc(Oc3ccc(-c4nn(C5CCOCC5)c5ncnc(N)c45)cc3)c2)cn1 [Compound 65] | < 100 nM
< 100 nM | Nc1ncnc2c1c(-c1ccc(Oc3cc(F)cc(CCc4ccccc4)c3)cc1)nn2C1CCOCC1 [Compound 66] | 100 to 1000 nM
< 100 nM | Cn1cncc1CCc1cc(F)cc(Oc2ccc(-c3nn(C4CCOCC4)c4ncnc(N)c34)cc2)c1 [Compound 67] | 100 to 1000 nM
< 100 nM | Nc1ncnc2c1c(-c1ccc(Oc3cc(F)cc(OCc4cncnc4)c3)cc1)nn2C1CCOCC1 [Compound 68] | < 100 nM
< 100 nM | Nc1ncnc2c1c(-c1ccc(Oc3cc(F)cc(OCc4cnccn4)c3)cc1)nn2C1CCOCC1 [Compound 69] | < 100 nM
< 100 nM | Cc1ncc(COc2cccc(Oc3ccc(-c4nn(C5CCOCC5)c5ncnc(N)c45)c(F)c3)c2)s1 [Compound 70] | < 100 nM
